Laboratory results as given in PMC2114737 (The Journal of Cell Biology, 1987).
Blank lines part the entries; values can stand above or below the compound they belong to.

Tests used:
[1] = molecular target: T1, N-formyl peptide receptor (Homo sapiens, UniProt P21462); experiment: Effect of guanine nucleotides on receptor affinity states of fast membranes; assay type: binding
T1 sequence (P21462 1-350): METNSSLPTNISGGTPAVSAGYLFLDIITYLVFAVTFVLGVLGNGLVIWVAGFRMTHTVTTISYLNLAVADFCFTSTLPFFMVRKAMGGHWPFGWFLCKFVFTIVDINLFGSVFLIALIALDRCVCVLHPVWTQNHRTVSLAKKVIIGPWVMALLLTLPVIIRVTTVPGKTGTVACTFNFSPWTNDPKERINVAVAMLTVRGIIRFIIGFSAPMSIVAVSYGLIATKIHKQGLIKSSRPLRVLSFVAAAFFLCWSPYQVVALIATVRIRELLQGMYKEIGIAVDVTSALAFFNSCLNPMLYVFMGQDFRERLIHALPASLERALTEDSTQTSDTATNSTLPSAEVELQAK

[2] = molecular target: T1, N-formyl peptide receptor; assay type: binding; conditions: Table II; fast microsomes, unstimulated; mean, SD, n = 5

Effect on state C receptor ([1]; fast membranes from Fl-peptide-stimulated cells, GTP-γ-S, listed as GTP-gamma-S): insensitive
Compound: Nc1nc2c(ncn2[C@@H]2O[C@H](COP(=O)(O)OP(=O)(O)OP(O)(O)=S)[C@@H](O)[C@H]2O)c(=O)[nH]1 [GTP-y-S]

Compound: Nc1nc2c(ncn2[C@@H]2O[C@H](COP(=O)(O)OP(=O)(O)OP(=O)(O)O)[C@@H](O)[C@H]2O)c(=O)[nH]1 [GTP]
Effect on state B dissociation rate / conversion to state A ([1]; membranes from unstimulated cells, nucleotide 10 μM where stated): converted to the fastest ligand-dissociation state (state A)

Percentage of receptor associated with State B [2]: 47%
Compound: N-formyl-Nle-Leu-Phe-Nle-Tyr- Lys-fluorescein [Fl-peptide]
